From PMC5607081 (2017)

System: target DNA; 23-bp duplex DNA oligo (DNA, duplex) GCGAATAAGAGGAAGTGAAACCG/CGGTTTCACTTCCTCTTATTCGC
Test: fluorescence polarization titration
Settings: 0.20 M NaCl; 10 mM TrisHCl, pH 7.5, 25°C, H2O, no osmolyte; apparent

N=C(N)c1ccc2[nH]c(-c3ccc(-c4nc5cc(C(=N)N)ccc5[nH]4)[se]3)nc2c1
−log (Kd, M): 9.90 ± 0.12 −log M
